This passage reports T/C results from PubChem BioAssay AID248 (DTP/NCI, 2004).

This test deals with L1210 leukemia ip in BDF1 mice, survival T/C. The experiment in a line: NCI In Vivo Anticancer Drug Screen. Data for tumor model L1210 Leukemia (intraperitoneal) in B6D2F1 (BDF1) mice. The note with it: endpoint: mean survival time, higher = longer survival. In short, it runs like this: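 Tumor cells were implanted, animals were treated, and survival was followed. The result divides the treated measurement by the vehicle-control measurement.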

Where [1] appears, read: dose: 100.0 mg/kg/injection, schedule: Q01DX001 (ip), vehicle: saline with Tween-80.
[2] abbreviates: dose: 200.0 mg/kg/injection, schedule: Q01DX001 (ip), vehicle: saline with Tween-80.
[3] abbreviates: dose: 400.0 mg/kg/injection, schedule: Q01DX001 (ip), vehicle: saline with Tween-80.
The mark [4] stands for this setting: dose: 100.0 mg/kg/injection, schedule: Q01DX009 (ip), vehicle: saline with Tween-80.
[5] abbreviates: dose: 200.0 mg/kg/injection, schedule: Q01DX009 (ip), vehicle: saline with Tween-80.
Setting [6] is: dose: 400.0 mg/kg/injection, schedule: Q01DX009 (ip), vehicle: saline with Tween-80.
The mark [7] stands for this setting: dose: 100.0 mg/kg/injection, schedule: Q01DX009 (ip), vehicle: Klucel (hydroxypropylcellulose) (HPC).
Where [8] appears, read: dose: 100.0 mg/kg/injection, schedule: Q04DX003 (ip), vehicle: Klucel (hydroxypropylcellulose) (HPC).
The mark [9] stands for this setting: dose: 200.0 mg/kg/injection, schedule: Q01DX009 (ip), vehicle: Klucel (hydroxypropylcellulose) (HPC).
Where [10] appears, read: dose: 400.0 mg/kg/injection, schedule: Q04DX003 (ip), vehicle: Klucel (hydroxypropylcellulose) (HPC).
The mark [11] stands for this setting: dose: 200.0 mg/kg/injection, schedule: Q01DX001 (ip), vehicle: carboxymethylcellulose (CMC).
Where [12] appears, read: dose: 50.0 mg/kg/injection, schedule: Q01DX001 (ip), vehicle: saline.
Setting [13] is: dose: 100.0 mg/kg/injection, schedule: Q01DX001 (ip), vehicle: saline.
Setting [14] is: dose: 200.0 mg/kg/injection, schedule: Q01DX001 (ip), vehicle: saline.
Setting [15] is: dose: 400.0 mg/kg/injection, schedule: Q01DX001 (ip), vehicle: saline.
The mark [16] stands for this setting: dose: 200.0 mg/kg/injection, schedule: Q04DX003 (ip), vehicle: Klucel (hydroxypropylcellulose) (HPC).

Values joined by “and” are separate entries in the source; they are usually repeats but may differ in a detail not shown here. Equal entries are not always repeated. Toxic doses and inconclusive results are not listed.

Regarding `c1ccc([P+](Cc2ccco2)(c2ccccc2)c2ccccc2)cc1`, the T/C is 103 % of control (dose: 5.0 mg/kg/injection, schedule: Q01DX001 (ip), vehicle: saline); 97 % of control (dose: 10.0 mg/kg/injection, schedule: Q01DX001 (ip), vehicle: saline); 90 % of control (dose: 20.0 mg/kg/injection, schedule: Q01DX001 (ip), vehicle: saline); 89 % of control (dose: 40.0 mg/kg/injection, schedule: Q01DX001 (ip), vehicle: saline).

As for `Cc1cc(OCc2nc(N)nc(N)c2-c2ccc(Cl)c(Cl)c2)ccc1NC(=O)c1cc(S(=O)(=O)F)ccc1Cl`, the T/C under setting [1] was 98 % of control, the T/C under setting [2] is 93 % of control and the T/C under setting [3] was 97 % of control.

For `CCCCCCCC/C=C\CCCCCCCC(=O)NCC[N+]1(C)CCCCC1`, the T/C reads like this: (dose: 75.0 mg/kg/injection, schedule: Q01DX001 (ip), vehicle: saline) 94 % of control; (dose: 150.0 mg/kg/injection, schedule: Q01DX001 (ip), vehicle: saline) 97 % of control.

Regarding `COc1ccc(C(O)(c2ccccc2)C(O)c2ccccc2)cc1` (stereo not drawn), the T/C under setting [4] was 98 % of control, the T/C under setting [5] was 88 % of control and the T/C under setting [6] is 86 % of control.

For the molecule `Cc1c(Cl)cccc1N1C(=O)CC(Sc2ccccc2N)C1=O` (stereo not drawn), the T/C by setting is: under setting [7], 95 % of control; under setting [4], 106 % of control; under setting [8], 92 % of control; (dose: 100.0 mg/kg/injection, schedule: Q04DX003 (ip), vehicle: saline with Tween-80) 94 % of control; under setting [9], 92 % of control; under setting [5], 107 % of control. Also, the T/C (dose: 200.0 mg/kg/injection, schedule: Q04DX003 (ip), vehicle: saline with Tween-80) is 88 % of control; the T/C under setting [6] was 109 % of control; the T/C under setting [10] is 89 % of control; the T/C (dose: 400.0 mg/kg/injection, schedule: Q04DX003 (ip), vehicle: saline with Tween-80) was 93 % of control.

Take `O=S1(=O)C=C(c2ccccc2)C(c2ccccc2)=C1`: the T/C reads like this: (dose: 3.12 mg/kg/injection, schedule: Q01DX009 (ip), vehicle: saline with Tween-80) 98 % of control; (dose: 6.25 mg/kg/injection, schedule: Q01DX009 (ip), vehicle: saline with Tween-80) 106 % of control; (dose: 12.5 mg/kg/injection, schedule: Q01DX009 (ip), vehicle: saline with Tween-80) 101 % of control; (dose: 25.0 mg/kg/injection, schedule: Q01DX009 (ip), vehicle: saline with Tween-80) 101 % of control and 108 % of control; (dose: 25.0 mg/kg/injection, schedule: Q04DX003 (ip), vehicle: Klucel (hydroxypropylcellulose) (HPC)) 95 % of control; (dose: 50.0 mg/kg/injection, schedule: Q01DX009 (ip), vehicle: saline with Tween-80) 95 % of control. In addition, the T/C reads like this: (dose: 50.0 mg/kg/injection, schedule: Q04DX003 (ip), vehicle: Klucel (hydroxypropylcellulose) (HPC)) 102 % of control; under setting [8], 118 % of control and 91 % of control.

`CCCCC(=O)N/N=C\c1cccc(I)c1`: the T/C (dose: 100.0 mg/kg/injection, schedule: Q01DX001 (ip), vehicle: carboxymethylcellulose (CMC)) is 87 % of control; the T/C under setting [11] was 93 % of control; the T/C (dose: 400.0 mg/kg/injection, schedule: Q01DX001 (ip), vehicle: carboxymethylcellulose (CMC)) was 87 % of control.

Take `Cn1cc2c(=O)n(OS(=O)(=O)c3ccccc3)c(=O)[nH]c2n1`: the T/C is 106 % of control under setting [12], 93 % of control under setting [13], 106 % of control under setting [14] and 100 % of control under setting [15].

Take `O=C(O)/C=C/C(=O)Nc1cc(Cl)cc2c1-c1c(Cl)cc(Cl)cc1C2=O`: the T/C (dose: 50.0 mg/kg/injection, schedule: Q01DX009 (ip), vehicle: saline) was 94 % of control; the T/C (dose: 100.0 mg/kg/injection, schedule: Q01DX009 (ip), vehicle: saline) is 94 % of control; the T/C under setting [8] is 98 % of control; the T/C (dose: 200.0 mg/kg/injection, schedule: Q01DX009 (ip), vehicle: saline) is 96 % of control; the T/C under setting [16] is 98 % of control.

As to `C=CCc1ccc(OC(=O)Nc2ccc(C)cc2Cl)c(OC)c1`, the T/C reads like this: (dose: 100.0 mg/kg/injection, schedule: Q04DX002 (ip), vehicle: carboxymethylcellulose (CMC)) 93 % of control and 101 % of control; (dose: 200.0 mg/kg/injection, schedule: Q04DX002 (ip), vehicle: carboxymethylcellulose (CMC)) 96 % of control and 100 % of control; (dose: 400.0 mg/kg/injection, schedule: Q04DX002 (ip), vehicle: carboxymethylcellulose (CMC)) 97 % of control and 107 % of control.

`NCCc1ccc(NC(=O)c2ccc(C(=O)Nc3ccc(CCN)cc3)c([N+](=O)[O-])c2)cc1`: the T/C runs as follows: (dose: 1.56 mg/kg/injection, schedule: Q01DX015 (ip), vehicle: methylcellulose (MC)) 94 % of control; (dose: 3.12 mg/kg/injection, schedule: Q01DX015 (ip), vehicle: methylcellulose (MC)) 94 % of control; (dose: 6.25 mg/kg/injection, schedule: Q01DX015 (ip), vehicle: methylcellulose (MC)) 94 % of control; (dose: 12.5 mg/kg/injection, schedule: Q01DX015 (ip), vehicle: methylcellulose (MC)) 98 % of control and 92 % of control; (dose: 25.0 mg/kg/injection, schedule: Q01DX015 (ip), vehicle: methylcellulose (MC)) 104 % of control.

For `CCCCOP(=O)(OCCCC)O/C(C)=C(\C)OP(=O)(OCCCC)OCCCC`, the T/C (dose: 87.5 mg/kg/injection, schedule: Q01DX009 (ip), vehicle: carboxymethylcellulose (CMC)) was 92 % of control and the T/C (dose: 175.0 mg/kg/injection, schedule: Q01DX009 (ip), vehicle: carboxymethylcellulose (CMC)) was 98 % of control.

For `O=NN(CCBr)C(=O)NCCBr`, the T/C (dose: 3.0 mg/kg/injection, schedule: Q01DX Z (ip), vehicle: carboxymethylcellulose (CMC)) was 110 % of control; the T/C (dose: 6.0 mg/kg/injection, schedule: Q01DX Z (ip), vehicle: carboxymethylcellulose (CMC)) was 107 % of control; the T/C (dose: 6.25 mg/kg/injection, schedule: Q01DX001 (ip), vehicle: carboxymethylcellulose (CMC)) is 104 % of control; the T/C (dose: 12.5 mg/kg/injection, schedule: Q01DX001 (ip), vehicle: carboxymethylcellulose (CMC)) is 103 % of control; the T/C (dose: 25.0 mg/kg/injection, schedule: Q01DX001 (ip), vehicle: carboxymethylcellulose (CMC)) is 109 % of control; the T/C (dose: 50.0 mg/kg/injection, schedule: Q01DX001 (ip), vehicle: carboxymethylcellulose (CMC)) was 114 % of control. Further, the T/C is 172 % of control (dose: 50.0 mg/kg/injection, schedule: Q01DX Z (ip), vehicle: carboxymethylcellulose (CMC)); 156 % of control (dose: 100.0 mg/kg/injection, schedule: Q01DX Z (ip), vehicle: carboxymethylcellulose (CMC)); 178 % of control under setting [11]; 200 % of control (dose: 300.0 mg/kg/injection, schedule: Q01DX001 (ip), vehicle: carboxymethylcellulose (CMC)).

On to `CCCOc1ccc(=S)[nH]n1`, for which the T/C runs as follows: under setting [13], 103 % of control; (dose: 100.0 mg/kg/injection, schedule: Q04DX003 (ip), vehicle: saline) 101 % of control; under setting [14], 95 % of control; (dose: 200.0 mg/kg/injection, schedule: Q04DX003 (ip), vehicle: saline) 106 % of control; under setting [15], 98 % of control; (dose: 400.0 mg/kg/injection, schedule: Q04DX003 (ip), vehicle: saline) 95 % of control.

With `Cc1cc(C)n(CO)n1`, the T/C reads like this: under setting [7], 107 % of control; under setting [8], 100 % of control; under setting [9], 108 % of control; under setting [16], 110 % of control; under setting [10], 112 % of control.

Consider `CCCCCCC(C)C1CCCCC1` (stereo not drawn), for which the T/C reads like this: under setting [1], 96 % of control; under setting [2], 93 % of control; under setting [3], 93 % of control.

Turning to `C/C(Cc1c[nH]c2ccccc12)=N/NC(N)=S`, the T/C reads like this: under setting [12], 100 % of control; under setting [13], 100 % of control.
